Consider four compounds from patent publication US4804664A, “Method and pharmaceutical preparation for treating chronic obstructive airway disease and cardiac disease, and intermediates for the preparation of therapeutically active xanthine derivatives” (priority 1978, dated 1989).

In general, LD50 refers to the dose at which mortality reaches 50%.

Entries after “also recorded” stand apart in the source; their conditions may differ. Like-named read-outs stand apart in the source and are kept apart here.

Data set [1] has as its system Guinea-Pig heart. The data set is described as follows: Isolated Guinea-Pig Hearts (Langendorff), chronotropic and inotropic potency. As to conditions: relative to theophylline (= 1); for Guinea-Pig heart Potency ratios of theophylline, chronotrop: cardioacceleration; for Guinea-Pig heart Potency ratios of theophylline, inotrop: inotropic. As for the experimental part:
From the bled guinea-pigs, the hearts were immediately removed and perfused with oxygenated Krebs solution at 37° according to Langendorff. The heart was mounted in a thermostatically controlled organ bath (25 ml) containing Krebs solution. A saline-filled, open-end polyethylene catheter was inserted into the right ventricle through the pulmonary artery. The catheter was fixed to the pulmonary artery by a ligature just above the valvular plane. It was connected to a pressure transduser (P23 AC), making it possible to record changes in intraventricular pressure. From these, the contraction frequency was obtained. Drugs were given as single bolus injections into the perfusion solution.
Potency ratios for relaxing effects on isolated bronchial smooth muscle, for cardioacceleration and for i.v. acute toxicity are illustrated. The relation between therapeutic ratios for theophylline and each compound is also calculated (column to the right).

Data set [2] in a line: in vivo. As to conditions: mouse, in vivo, mice; for LD50 at 336 h: iv, i.v.; for selectivity ratio at 336 h: read-out: Ratio LD50 p.o. / LD50 i.v. Here is the method:
(§1) Male NMRI mice, weighing 20-26 g, starved for 8 hr. were used. The compounds, dissolved in 0.5M NaOH and 0.85% NaCl-solution (pH 10.6-12.1) were administered as follows:
(§2) (a) intravenously, 0.1 ml/10 g at an injection rate of 0.3 ml per minute
(§3) At least seven dose levels, doses increasing in a geometric progression with a factor 1.2, were examined. Each dose was given to 5 animals. […] The position of extremities in dead animals indicated whether they had died in convulsions or not. The LD50 values±standard error were calculated using probit analysis.

Data set [3] has as its system mice. As to the kind of experiment: in vivo. The following applies: for Ratio i.v. LD50 TA/(.): theophylline relative to compound, Table 2; for tonic convulsions: lethal doses. As for the experimental part: as §1, §2, §3
The nature of data set [4]: in vivo. The following applies: mouse, in vivo, po, mice, p.o.
The subject of data set [5] is mice. As to the kind of experiment: in vivo. The following applies: theophylline relative to compound, Table 2.
For data set [6] the following is noted: theophylline therapy, cited from earlier work.
Where [7] appears, read: probit analysis, read-out: LD50 ± SE i.v.
[8] abbreviates: probit analysis, read-out: LD50 ± SE p.o.

For the compound `CCCCn1c(=O)[nH]c(=O)c2[nH]cnc21` [D 4031, 3-butyl-3,7-dihydro-1H-purine-2,6-dione], in data set [1], the “Guinea-Pig heart Potency ratios of theophylline, chronotrop” value is given as 5. For the same compound, the “Guinea-Pig heart Potency ratios of theophylline, inotrop” value in data set [1] is 2. The LD50 at 336 h in data set [2] (setting [7]) was 158 ± 8.8 mg/kg; in data set [2] (read-out: LD50 i.v.) it was 750 µmol/kg; in data set [4] (setting [8]), 408 ± 10.7 mg/kg; in data set [4] (read-out: LD50 p.o.), 1950 µmol/kg. Also, the selectivity ratio at 336 h in data set [2] was determined as 2.6. The “Ratio i.v. LD50 TA/(.)” value in data set [3] is 1.35. The tonic convulsions result in data set [3] is given as “without convulsive effects”. Further, the “Ratio p.o. LD50 TA/(.)” value in data set [5] was found to be 1.14.

As for `CC(C)Cn1c(=O)[nH]c(=O)c2[nH]cnc21` [D 4030, 3,7-dihydro-3-(2-methylpropyl)-1H-purine-2,6-dione], the “Guinea-Pig heart Potency ratios of theophylline, chronotrop” value in data set [1] is on record as 5. For the same compound, the “Guinea-Pig heart Potency ratios of theophylline, inotrop” value in data set [1] is listed as 2. In addition, the LD50 at 336 h in data set [2] (setting [7]) came out at 109 ± 5.9 mg/kg; in data set [2] (read-out: LD50 i.v.), 520 µmol/kg; in data set [4] (setting [8]), 304 ± 26 mg/kg; in data set [4] (read-out: LD50 p.o.), 1450 µmol/kg. The selectivity ratio at 336 h in data set [2] was determined as 2.8. Moreover, the “Ratio i.v. LD50 TA/(.)” value in data set [3] is reported as 1.94. In data set [3], the tonic convulsions result is “without convulsive effects”. In data set [5], the “Ratio p.o. LD50 TA/(.)” value was 1.53.

Regarding `Cn1c(=O)c2[nH]cnc2n(C)c1=O` [Theophylline, reference compound], the tonic convulsions entry in data set [3] was “in lethal doses produced tonic convulsions; also recorded: convulsions which theophylline does”. In addition, in data set [6] (COAD and cardiac disease), the major therapeutic effects result was “relax bronchial smooth muscle and stimulate heart muscle”. Further, the toxic side-effects entry in data set [6] was “most common are nausea and gastric distress, most serious are convulsions, which may lead to death”.

Consider `CCCn1c(=O)[nH]c(=O)c2[nH]cnc21` [D 4028, 3,7-dihydro-3-propyl-1H-purine-2,6-dione], for which the “Guinea-Pig heart Potency ratios of theophylline, chronotrop” value in data set [1] turned out to be 2. Also, in data set [1], the “Guinea-Pig heart Potency ratios of theophylline, inotrop” value is reported as 2.5. The LD50 at 336 h amounted to 157 ± 7.1 mg/kg in data set [2] (setting [7]), 810 µmol/kg in data set [2] (read-out: LD50 i.v.), 501 ± 54 mg/kg in data set [4] (setting [8]) and 2550 µmol/kg in data set [4] (read-out: LD50 p.o.). In data set [2], the selectivity ratio at 336 h was 3.1. Moreover, the “Ratio i.v. LD50 TA/(.)” value in data set [3] is 1.24. Also, the tonic convulsions entry in data set [3] is recorded as “without convulsive effects”. The “Ratio p.o. LD50 TA/(.)” value in data set [5] stood at 0.87.
